Several values for one entry are separate records, joined by “and”; a condition that tells them apart may be missing. Equal values may be shown once. Read-outs that look alike come from different tables or passages of the source.
Assays:
[1] = system: ATCC strain 43300 Staphylococcus aureus; details: for survival (cfu/ml): triplicate platings
Description: Additional antibiotic was added every 24 hours. The growth periods tested were 24 (FIG. 5), 48, 72, 96 and 120 hours.
(§1) USP<51> Antimicrobial Effectiveness protocol was used as the template experimental paradigm. […] All concentrations were plated out to the 10^−7 dilutions to ascertain cfu/ml. […] Additional antibiotic was added at the initial concentration every 24 hours.
ATCC strain 43300 Staphylococcus aureus was streaked out for isolations. An isolated colony was chosen, streaked again and incubated. Isolate was chosen and then diluted to a McFarland standard of one. The estimated value was then taken to inoculate tubes containing growth media and 12, 30 or 60 μg/ml methicillin with approximately 10^5 cfu/ml. These tubes were incubated and plated for counting cfu.
Material was calculated on a 10 ml volume. Sterile methicillin was added to each experimental condition to a final concentration of 12, 30 or 60 μg/ml antibiotic. Lactose Broth positive controls both with and without the 12 μg/ml, 30 μg/ml, 60 μg/ml antibiotic were inoculated with MRSA. […] Tubes were set up in singlet, but plated in triplicate, as described below.
All tubes were then inoculated with a dilution of the selected ATCC strain 43300 Staphylococcus aureus clone giving a final level of colony forming units of 1.49×10^5/ml (log=5.17). The tubes were incubated at 25° C. and mixed periodically. Antibiotic was re-inoculated every 24 hours at the initial concentration to maintain pressure on the organism. Plating was done at 24, 48, 72, and 120 hours. Each condition was plated by diluting 1 ml of growth material into 9 ml of MLB diluent broth. […] This mixture was serial diluted down to 10^−7 with 1 ml placed in triplicate in a sterile petri dish at each dilution point. 20 mls of TSA was added to each dilution, swirled and allowed to solidify. All dilutions were placed in a 35° C. incubator for 24 to 72 hours. Bacterial colonies on each plate were counted and the average taken then changed into log format. […] Graphs were recorded as log of 5.2 for TNTC to show comparison among the other data points.
The tubes were spun down at 5000 rpm for 10 minutes. The supernatant was then decanted into 90 mls of Mueller-Hinton broth with 6 μg/ml methicillin. This is for enrichment and the recovery of any MRSA cells that may be present wether healthy or stressed. The pellet had 10 mls Mueller-Hinton broth with 6 μg/ml methicillin added to it to recover any cells that may be present. Both vessels were incubated at 35° C. for 48 hours and plated each 24 hours. Each vessel was plated at 10 dilutions to obtain a 1 cfu detection limit. Since all vessels were at a 1/10 dilution in the enrichment solution plating each vessel in this manner gave us a detection limit of 1 cfu/ml. […] This time point for graphing purposes will be reported as 0 logs.

[2] = system: ATCC strain 43300 Staphylococcus aureus; details: for survival (cfu/ml): 12 μg/ml oxacillin (re-added every 24 hours) + MSM (% in label), three columns = triplicate platings, inoculum 3.3×10^5/ml; for survival, Average Log: 12 μg/ml oxacillin + MSM (% in label)
Description: Additional antibiotic was added every 24 hours. The growth periods tested were 24 (see FIG. 4), 48, 72, 96 and 120 hours.
as §1
ATCC strain 43300 Staphylococcus aureus was streaked out for isolations. An isolated colony was chosen, streaked again and incubated. Isolate was chosen and then diluted to a McFarland standard of one. The estimated value was then taken to inoculate tubes containing growth media and 12, 30 or 60 μg/ml oxacillin with approximately 10^5 cfu/ml. These tubes were incubated and plated for counting cfu. A clone having no observed log reduction in cfu was selected for the rest of the experiment.
Material was calculated on a 10 ml volume. Sterile oxacillin was added to each experimental condition to a final concentration of 12, 30 or 60 μg/ml antibiotic.
All tubes were then inoculated with a dilution of the selected ATCC strain 43300 Staphylococcus aureus clone giving a final level of colony forming units of 3.3×10^5/ml (log=5.52). The tubes were incubated at 25° C. and mixed periodically. Antibiotic was re-inoculated every 24 hours at the initial concentration to maintain pressure on the organism. Plating was done at 24, 48, 72, and 120 hours. Each condition was plated by diluting 1 ml of growth material into 9 ml of MLB diluent broth. […] This mixture was serial diluted down to 10^−7 with 1 ml placed in triplicate in a sterile petri dish at each dilution point. 20 mls of TSA was added to each dilution, swirled and allowed to solidify. All dilutions were placed in a 35° C. incubator for 24 to 72 hours. Bacterial colonies on each plate were counted and the average taken then changed into log format. Any cfu/ml observed greater than 3.3×10^5 (log=5.5) were recorded as >3.3×10^5.
The tube was then taken out of the experiment and tested for ATCC strain 43300 Staphylococcus growth. The tube was spun down at 5000 rpm for 10 minutes. The supernatant was then decanted into 90 mls of Mueller-Hinton broth with 6 μg/ml oxacillin. This is for enrichment and the recovery of any MRSA cells that may be present whether healthy or stressed. The pellet had 10 mls Mueller-Hinton broth with 6 μg/ml oxacillin added to it to recover any cells that may be present. Both vessels were incubated at 35° C. for 48 hours followed by plating every 24 hours. Each vessel was plated at 10 dilutions to obtain a 1 cfu detection limit.

Compound: CS(C)(=O)=O [MSM, Methylsulfonylmethane]
- survival (cfu/ml) ([1]; 12 μg/ml methicillin (re-added every 24 hours) + MSM (% in label), 24 hours, inoculum 1.49×10^5/ml, listed as 5% MSM): 7.8 × 10^2 cfu/ml and 8.0 × 10^2 cfu/ml and 8.2 × 10^2 cfu/ml
- survival (cfu/ml) ([1]; 12 μg/ml methicillin (re-added every 24 hours) + MSM (% in label), 24 hours, inoculum 1.49×10^5/ml, listed as 6% MSM): 4.0 × 10^2 cfu/ml and 4.4 × 10^2 cfu/ml and 4.5 × 10^2 cfu/ml
- survival (cfu/ml) ([1]; 12 μg/ml methicillin (re-added every 24 hours) + MSM (% in label), 24 hours, inoculum 1.49×10^5/ml, listed as 7% MSM): 4.4 × 10^2 cfu/ml and 5.0 × 10^2 cfu/ml
- survival (cfu/ml) ([1]; 12 μg/ml methicillin (re-added every 24 hours) + MSM (% in label), 24 hours, inoculum 1.49×10^5/ml, listed as 8% MSM): 9.6 × 10^2 cfu/ml and 9.5 × 10^2 cfu/ml and 9.3 × 10^2 cfu/ml
- survival (cfu/ml) ([1]; 12 μg/ml methicillin (re-added every 24 hours) + MSM (% in label), 24 hours, inoculum 1.49×10^5/ml, listed as 9% MSM): 9.0 × 10^2 cfu/ml and 9.4 × 10^2 cfu/ml and 9.2 × 10^2 cfu/ml
- survival (cfu/ml) ([1]; 12 μg/ml methicillin (re-added every 24 hours) + MSM (% in label), 24 hours, inoculum 1.49×10^5/ml, listed as 10% MSM): 1.4 × 10^3 cfu/ml
- survival (cfu/ml) ([1]; 12 μg/ml methicillin (re-added every 24 hours) + MSM (% in label), 24 hours, inoculum 1.49×10^5/ml, listed as 11% MSM): 2.2 × 10^3 cfu/ml and 2.3 × 10^3 cfu/ml
- survival (cfu/ml) ([1]; 12 μg/ml methicillin (re-added every 24 hours) + MSM (% in label), 24 hours, inoculum 1.49×10^5/ml, listed as 12% MSM): 2.9 × 10^3 cfu/ml and 3.0 × 10^3 cfu/ml and 2.8 × 10^3 cfu/ml
- survival (cfu/ml) ([1]; 12 μg/ml methicillin (re-added every 24 hours) + MSM (% in label), 24 hours, inoculum 1.49×10^5/ml, listed as 13% MSM): 3.3 × 10^3 cfu/ml and 3.5 × 10^3 cfu/ml and 3.4 × 10^3 cfu/ml
- survival (cfu/ml) ([1]; 12 μg/ml methicillin (re-added every 24 hours) + MSM (% in label), 24 hours, inoculum 1.49×10^5/ml, listed as 14% MSM): 8.8 × 10^3 cfu/ml and 8.5 × 10^3 cfu/ml and 8.2 × 10^3 cfu/ml
- survival (cfu/ml) ([1]; 12 μg/ml methicillin (re-added every 24 hours) + MSM (% in label), 24 hours, inoculum 1.49×10^5/ml, listed as 15% MSM): 6.4 × 10^3 cfu/ml and 6.6 × 10^3 cfu/ml and 6.5 × 10^3 cfu/ml
- survival (cfu/ml) ([1]; 12 μg/ml methicillin (re-added every 24 hours) + MSM (% in label), 24 hours, inoculum 1.49×10^5/ml, listed as 16% MSM): 1.01 × 10^3 cfu/ml and 1.03 × 10^3 cfu/ml and 1.04 × 10^3 cfu/ml
- log reduction ([1]; 12 μg/ml methicillin, 24 hours): 2.2 log
- log reduction in colony count ([1]; 12 μg/ml methicillin, 48 hours): 4.1 log
- recovery after enrichment in Mueller-Hinton broth ([1]; 12 μg/ml methicillin, 72 hours, detection limit 1 cfu/ml): true total kill
- colony count ([1]; 12 μg/ml methicillin, 96 hours): TNTC
- recovery after enrichment in Mueller-Hinton broth ([1]; 12 μg/ml methicillin, 96 hours, detection limit 1 cfu/ml): true total kill
- colony count ([1]; 12 μg/ml methicillin, 120 hours): TNTC
- average log reduction in colony count ([1]; 12 μg/ml methicillin, all MSM concentrations, 24 hours): 1.5 logs
- survival (cfu/ml) ([1]; 30 μg/ml methicillin + MSM (% in label), 24 hours, listed as 5% MSM): 3.8 × 10^2 cfu/ml and 4.1 × 10^2 cfu/ml and 4.0 × 10^2 cfu/ml
- survival (cfu/ml) ([1]; 30 μg/ml methicillin + MSM (% in label), 24 hours, listed as 6% MSM): 2.2 × 10^2 cfu/ml and 2.5 × 10^2 cfu/ml
- survival (cfu/ml) ([1]; 30 μg/ml methicillin + MSM (% in label), 24 hours, listed as 7% MSM): 3.4 × 10^2 cfu/ml and 3.5 × 10^2 cfu/ml and 3.3 × 10^2 cfu/ml
- survival (cfu/ml) ([1]; 30 μg/ml methicillin + MSM (% in label), 24 hours, listed as 8% MSM): 9.4 × 10^2 cfu/ml and 9.6 × 10^2 cfu/ml
- survival (cfu/ml) ([1]; 30 μg/ml methicillin + MSM (% in label), 24 hours, listed as 9% MSM): 1.1 × 10^3 cfu/ml and 1.3 × 10^3 cfu/ml and 1.2 × 10^3 cfu/ml
- survival (cfu/ml) ([1]; 30 μg/ml methicillin + MSM (% in label), 24 hours, listed as 10% MSM): 1.2 × 10^3 cfu/ml and 1.3 × 10^3 cfu/ml and 1.1 × 10^3 cfu/ml
- survival (cfu/ml) ([1]; 30 μg/ml methicillin + MSM (% in label), 24 hours, listed as 11% MSM): 3.3 × 10^3 cfu/ml and 2.8 × 10^3 cfu/ml and 3.1 × 10^3 cfu/ml
- survival (cfu/ml) ([1]; 30 μg/ml methicillin + MSM (% in label), 24 hours, listed as 12% MSM): 3.3 × 10^3 cfu/ml
- survival (cfu/ml) ([1]; 30 μg/ml methicillin + MSM (% in label), 24 hours, listed as 13% MSM): 6.5 × 10^3 cfu/ml and 6.4 × 10^3 cfu/ml
- survival (cfu/ml) ([1]; 30 μg/ml methicillin + MSM (% in label), 24 hours, listed as 14% MSM): 6.3 × 10^3 cfu/ml and 6.7 × 10^3 cfu/ml and 6.9 × 10^3 cfu/ml
- survival (cfu/ml) ([1]; 30 μg/ml methicillin + MSM (% in label), 24 hours, listed as 15% MSM): 7.8 × 10^3 cfu/ml and 7.6 × 10^3 cfu/ml and 8.0 × 10^3 cfu/ml
- survival (cfu/ml) ([1]; 30 μg/ml methicillin + MSM (% in label), 24 hours, listed as 16% MSM): 9.6 × 10^3 cfu/ml and 9.8 × 10^3 cfu/ml and 9.7 × 10^3 cfu/ml
- log reduction in colony count ([1]; 30 μg/ml methicillin, 24 hours): 2.8 log
- recovery after enrichment in Mueller-Hinton broth ([1]; 30 μg/ml methicillin, 120 hours, detection limit 1 cfu): true total kill
- average log reduction ([1]; 30 μg/ml methicillin, lower end of MSM concentrations, 24 hours): 3 log
- survival (cfu/ml) ([1]; 60 μg/ml methicillin + MSM (% in label), 24 hours, listed as 5% MSM): 8.3 × 10^2 cfu/ml and 8.1 × 10^2 cfu/ml
- survival (cfu/ml) ([1]; 60 μg/ml methicillin + MSM (% in label), 24 hours, listed as 6% MSM): 4.2 × 10^2 cfu/ml and 4.8 × 10^2 cfu/ml
- survival (cfu/ml) ([1]; 60 μg/ml methicillin + MSM (% in label), 24 hours, listed as 7% MSM): 6.1 × 10^2 cfu/ml and 6.3 × 10^2 cfu/ml and 6.2 × 10^2 cfu/ml
- survival (cfu/ml) ([1]; 60 μg/ml methicillin + MSM (% in label), 24 hours, listed as 8% MSM): 9.4 × 10^2 cfu/ml and 9.8 × 10^2 cfu/ml and 9.7 × 10^2 cfu/ml
- survival (cfu/ml) ([1]; 60 μg/ml methicillin + MSM (% in label), 24 hours, listed as 9% MSM): 2.0 × 10^3 cfu/ml and 1.6 × 10^3 cfu/ml and 1.8 × 10^3 cfu/ml
- survival (cfu/ml) ([1]; 60 μg/ml methicillin + MSM (% in label), 24 hours, listed as 10% MSM): 2.2 × 10^3 cfu/ml and 2.1 × 10^3 cfu/ml and 2.0 × 10^3 cfu/ml
- survival (cfu/ml) ([1]; 60 μg/ml methicillin + MSM (% in label), 24 hours, listed as 11% MSM): 3.5 × 10^3 cfu/ml and 3.8 × 10^3 cfu/ml and 3.9 × 10^3 cfu/ml
- survival (cfu/ml) ([1]; 60 μg/ml methicillin + MSM (% in label), 24 hours, listed as 12% MSM): 4.5 × 10^3 cfu/ml and 4.1 × 10^3 cfu/ml and 4.7 × 10^3 cfu/ml
- survival (cfu/ml) ([1]; 60 μg/ml methicillin + MSM (% in label), 24 hours, listed as 13% MSM): 7.0 × 10^3 cfu/ml and 6.8 × 10^3 cfu/ml and 6.5 × 10^3 cfu/ml
- survival (cfu/ml) ([1]; 60 μg/ml methicillin + MSM (% in label), 24 hours, listed as 14% MSM): 8.3 × 10^3 cfu/ml and 8.8 × 10^3 cfu/ml and 8.5 × 10^3 cfu/ml
- survival (cfu/ml) ([1]; 60 μg/ml methicillin + MSM (% in label), 24 hours, listed as 15% MSM): 8.3 × 10^3 cfu/ml and 8.5 × 10^3 cfu/ml and 8.4 × 10^3 cfu/ml
- survival (cfu/ml) ([1]; 60 μg/ml methicillin + MSM (% in label), 24 hours, listed as 16% MSM): 8.4 × 10^3 cfu/ml and 8.5 × 10^3 cfu/ml
- log reduction in colony count ([1]; 60 μg/ml methicillin, 48 hours): 4.1 log
- recovery after enrichment in Mueller-Hinton broth ([1]; 60 μg/ml methicillin, 72 hours, detection limit 1 cfu/ml): true total kill
- colony count ([1]; 60 μg/ml methicillin, 96 hours): TNTC
- recovery after enrichment in Mueller-Hinton broth ([1]; 60 μg/ml methicillin, 120 hours, detection limit 1 cfu): true total kill
- growth ([1]; positive 5%, 10%, and 16% MSM controls, no antibiotic, 24 hours): signs of turbid growth, was TNTC for all dilutions plated
- survival (cfu/ml) ([2]; 24 hours, listed as 15% MSM): 1.35 × 10^4 cfu/ml and 1.30 × 10^4 cfu/ml
- survival (cfu/ml) ([2]; 24 hours, listed as 16% MSM): 7.6 × 10^3 cfu/ml and 7.4 × 10^3 cfu/ml
- survival, Average Log ([2]; 24 hours, listed as 5% MSM): 3.91 Log
- survival, Average Log ([2]; 24 hours, listed as 6% MSM): 3.92 Log
- survival, Average Log ([2]; 24 hours, listed as 7% MSM): 3.91 Log
- survival, Average Log ([2]; 24 hours, listed as 8% MSM): 3.82 Log
- survival, Average Log ([2]; 24 hours, listed as 9% MSM): 3.72 Log
- survival, Average Log ([2]; 24 hours, listed as 10% MSM): 3.76 Log
- survival, Average Log ([2]; 24 hours, listed as 11% MSM): 3.91 Log
- survival, Average Log ([2]; 24 hours, listed as 12% MSM): 3.85 Log
- survival, Average Log ([2]; 24 hours, listed as 13% MSM): 3.95 Log
- survival, Average Log ([2]; 24 hours, listed as 14% MSM): 4.00 Log
- survival, Average Log ([2]; 24 hours, listed as 15% MSM): 4.11 Log
- survival, Average Log ([2]; 24 hours, listed as 16% MSM): 3.88 Log
- survival, Average Log ([2]; 48 hours, listed as 5% MSM): 3.6 Log
- survival, Average Log ([2]; 48 hours, listed as 6% MSM): 3.2 Log
- survival, Average Log ([2]; 48 hours, listed as 7% MSM): 3.9 Log
- survival, Average Log ([2]; 48 hours, listed as 8% MSM): 3.7 Log
- survival, Average Log ([2]; 48 hours, listed as 9% MSM): 3.4 Log
- survival, Average Log ([2]; 48 hours, listed as 10% MSM): 2.7 Log
- survival, Average Log ([2]; 48 hours, listed as 11% MSM): 2.8 Log
- survival, Average Log ([2]; 48 hours, listed as 12% MSM): 2.8 Log
- survival, Average Log ([2]; 48 hours, listed as 13% MSM): 2.8 Log
- survival, Average Log ([2]; 48 hours, listed as 14% MSM): 1.0 Log
- survival, Average Log ([2]; 48 hours, listed as 15% MSM): 3.7 Log
- survival, Average Log ([2]; 48 hours, listed as 16% MSM): 3.7 Log
- survival, Average Log ([2]; 72 hours, listed as 5% MSM): 5.5 Log
- survival, Average Log ([2]; 72 hours, listed as 6% MSM): 5.5 Log
- survival, Average Log ([2]; 72 hours, listed as 7% MSM): 5.5 Log
- survival, Average Log ([2]; 72 hours, listed as 8% MSM): 5.5 Log
- survival, Average Log ([2]; 72 hours, listed as 9% MSM): 4.5 Log

Source: patent US20130338130A1 (priority 2009, published 2013)
